Common to all, as to assay: […]-ATP peptide kinase assay with TLC, purified kinase
What all share (format): biochemical

One experiment deals with Btk (Homo sapiens, UniProt Q06187).
The next experiment addresses T1, Itk (Homo sapiens, UniProt Q08881).
T1 sequence (Q08881 1-620): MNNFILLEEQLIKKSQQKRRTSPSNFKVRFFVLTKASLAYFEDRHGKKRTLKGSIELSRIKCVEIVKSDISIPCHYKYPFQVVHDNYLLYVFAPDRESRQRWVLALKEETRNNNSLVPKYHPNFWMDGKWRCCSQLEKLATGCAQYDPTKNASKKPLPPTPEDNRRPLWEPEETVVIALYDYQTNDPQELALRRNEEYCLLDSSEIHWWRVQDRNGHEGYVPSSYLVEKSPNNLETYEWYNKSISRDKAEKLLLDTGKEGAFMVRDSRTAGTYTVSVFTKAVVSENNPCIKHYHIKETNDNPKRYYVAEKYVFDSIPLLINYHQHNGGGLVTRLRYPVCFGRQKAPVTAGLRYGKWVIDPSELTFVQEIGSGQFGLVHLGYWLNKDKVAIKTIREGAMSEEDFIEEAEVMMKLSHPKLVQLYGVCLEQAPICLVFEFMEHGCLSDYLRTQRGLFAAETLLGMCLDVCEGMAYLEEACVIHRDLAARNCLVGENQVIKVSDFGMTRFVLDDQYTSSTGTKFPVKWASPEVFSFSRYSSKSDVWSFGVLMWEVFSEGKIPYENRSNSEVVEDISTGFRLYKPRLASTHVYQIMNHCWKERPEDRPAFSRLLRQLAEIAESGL

The target in a further experiment is Src (Homo sapiens, UniProt P12931).
Chain of Src (P12931 2-536): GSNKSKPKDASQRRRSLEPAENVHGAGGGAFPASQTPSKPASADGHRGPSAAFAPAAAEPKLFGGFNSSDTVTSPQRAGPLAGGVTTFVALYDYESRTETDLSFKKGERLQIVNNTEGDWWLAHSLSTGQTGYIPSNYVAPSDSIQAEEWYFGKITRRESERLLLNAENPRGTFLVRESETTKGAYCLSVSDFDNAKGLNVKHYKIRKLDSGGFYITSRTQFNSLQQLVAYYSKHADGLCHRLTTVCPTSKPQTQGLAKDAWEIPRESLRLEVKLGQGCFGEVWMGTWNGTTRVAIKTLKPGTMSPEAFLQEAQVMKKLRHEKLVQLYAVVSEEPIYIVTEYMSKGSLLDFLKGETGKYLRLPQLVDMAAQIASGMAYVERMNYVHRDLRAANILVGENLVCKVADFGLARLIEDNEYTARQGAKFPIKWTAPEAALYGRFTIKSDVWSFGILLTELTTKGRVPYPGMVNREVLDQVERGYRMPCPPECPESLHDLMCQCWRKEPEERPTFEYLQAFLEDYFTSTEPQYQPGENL

Chain of Btk (Q06187 2-659): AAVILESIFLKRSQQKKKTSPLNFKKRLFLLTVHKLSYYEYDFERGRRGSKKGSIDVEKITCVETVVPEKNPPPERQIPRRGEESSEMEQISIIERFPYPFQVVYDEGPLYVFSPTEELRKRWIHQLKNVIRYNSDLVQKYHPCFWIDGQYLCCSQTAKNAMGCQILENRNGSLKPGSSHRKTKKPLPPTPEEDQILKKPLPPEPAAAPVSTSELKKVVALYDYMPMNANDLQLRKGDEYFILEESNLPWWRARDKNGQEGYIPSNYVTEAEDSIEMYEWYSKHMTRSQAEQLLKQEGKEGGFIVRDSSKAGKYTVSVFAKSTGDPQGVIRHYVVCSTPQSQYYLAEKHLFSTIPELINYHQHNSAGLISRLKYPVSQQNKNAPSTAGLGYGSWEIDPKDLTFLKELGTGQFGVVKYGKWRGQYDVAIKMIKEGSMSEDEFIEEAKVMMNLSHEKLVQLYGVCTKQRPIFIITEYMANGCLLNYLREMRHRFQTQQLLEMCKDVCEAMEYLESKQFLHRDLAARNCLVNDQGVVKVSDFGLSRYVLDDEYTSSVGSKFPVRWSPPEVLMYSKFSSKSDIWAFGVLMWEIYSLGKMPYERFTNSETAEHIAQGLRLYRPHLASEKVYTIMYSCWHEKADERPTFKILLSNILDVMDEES

As for `CC(C)Cc1nc2cc3c(cc2[nH]c1=O)nc(NC(=O)c1ccc(-c2ccncc2)cc1)n3CCCN1CCCCC1` [CTN06, N-(7-isobutyl-6-oxo-1-(3-(piperidin-1-yl)propyl)-5,6-dihydro-1H-imidazo[4,5-g]quinoxalin-2-yl)-4-(pyridin-4-yl)benzamide], the IC50 is approximately 50 nM against Btk and approximately 5000 nM against Src. Moreover, the “33P-ATP peptide kinase assay with TLC, purified kinase” value on Itk is “CTN06 appears to have the strongest activity toward Btk and Etk, followed by Itk, another member in the same family”.

The IC50 is the point on the concentration scale where inhibition reaches its midpoint. High values mean a need for much substance, low ones inhibition by little substance.

Source of the values: PMC4540187 (Cell Death & Disease, 2014).
